Experimental data reported in patent US20130281361A1, “METHODS OF TREATING AND PREVENTING RHINOVIRUS INFECTION” (priority 2010, published 2013).
Entries after “also recorded” stand apart in the source; their conditions may differ. No end group written: not given here.

Key:
rhinovirus (Rv16) = experiment: Rhinovirus (Rv16) infectivity: virus incubated with peptide, titer quantified by TCID50 assay using H1-HeLa cells; type: cell-based; conditions: for concentration at which maximal efficacy was reached / reduction of rhinovirus titer at maximal efficacy: Rv16, 1 hour at 37° C.; for reduction of rhinovirus titer at maximal efficacy: at the concentration given under E5
Experimental: To determine if β-defensins had antiviral activity against rhinovirus, recombinant human β-defensins (Peprotech, Rocky Hill, N.J.) were used in assays with rhinovirus (Rv16). Recombinant β-defensin proteins were diluted in PBS to the desired concentrations (0.25-1.25 μg/mL). Virus was added to each tube to a final volume of 40 μL and incubated for 1 hour at 37° C. plus 5% CO2. After incubation, 200 uL of cell culture media was added to each tube and viral titers were quantified in a 50% Tissue Culture Infectious Dose (TCID50) assay using H1-HeLa cells. The TCID50 assay is a standard endpoint dilution assay that is used to quantify how much of a given virus is present in a sample. The limit of detection for rhinovirus in the assay was 1.2 log10 TCID50.
Human α-defensins and LL-37, a broadly expressed antimicrobial peptide from the cathelicidin family, were also tested for antiviral activity against rhinovirus. Recombinant human α-defensins (HNP-1, HNP-3 and HNP-5) (Pepnet, Louisville, Ky.) and recombinant LL-37 (Pepnet, Louisville, Ky.) were used in assays with rhinovirus (Rv16) to determine their antiviral activity. Recombinant HBD-3 (Peprotech, Rocky Hill, N.J.) was used as a control. The recombinant proteins were diluted in PBS to the desired concentrations (see FIG. 2). Virus was added to each tube to a final volume of 40 μL and incubated for 1 hour at 37° C. plus 5% CO2. After incubation, 200 μL of cell culture media was added to each tube and the concentration of virus was quantified by TCID50 assay using H1-HeLa cells. The limit of detection for rhinovirus in the assay was 1.2 log10 TCID50/mL.

adenovirus = conditions: background literature; cited from earlier work
rhinovirus = conditions: Proud et al., J Immunol 172:4637-4645, 2004; cited from earlier work
papillomavirus = conditions: background literature; cited from earlier work

human β-defensin 3 (GIINTLQKYYCRVRGGRCAVLSCLPKEEQIGKCSTRGRKCCRRKK; ends and bridges not checked; cysteine pairing not given here; UniProt P81534 23-67, looked up) [HBD-3, recombinant human β-defensin (Peprotech)]
antiviral activity against rhinovirus (Rv16), in words (rhinovirus (Rv16); Example 1, FIG. 1): significantly reduced viral concentration; also recorded: exhibited antiviral activity
antiviral activity against rhinovirus (Rv16), in words (rhinovirus (Rv16); Example 2, FIG. 2): most susceptible

human β-defensin 2 [HBD-2]
antiviral activity against adenovirus (adenovirus): not
antiviral activity against rhinovirus (Rv16), in words (rhinovirus (Rv16); Example 1, FIG. 1): significantly reduced viral concentration; also recorded: exhibited antiviral activity
ability to inactivate rhinovirus (rhinovirus): unable to inactivate rhinovirus
antiviral activity against papillomavirus (papillomavirus): not

human β-defensin 4 (EFELDRICGYGTARCRKKCRSQEYRIGRCPNTYACCLRKWDESLLNRTKP; ends and bridges not checked; cysteine pairing not given here; UniProt Q8WTQ1 23-72, looked up) [HBD-4, recombinant human β-defensin (Peprotech)]
antiviral activity against rhinovirus (Rv16), in words (rhinovirus (Rv16); Example 1, FIG. 1): significantly reduced viral concentration; also recorded: exhibited antiviral activity

human neutrophil peptide 1 [HNP-1]
antiviral activity against adenovirus (adenovirus): antiviral activity was observed
antiviral activity against rhinovirus (Rv16), in words (rhinovirus (Rv16); Example 2, FIG. 2): exhibited antiviral activity
concentration at which maximal efficacy was reached (rhinovirus (Rv16); Example 2, FIG. 2): 5 µg/mL
reduction of rhinovirus titer at maximal efficacy (rhinovirus (Rv16); Example 2, FIG. 2): 1 Log10 TCID50/mL
antiviral activity against papillomavirus (papillomavirus): antiviral activity was observed

human defensin 5 (ATCYCRTGRCATRESLSGVCEISGRLYRLCCR; ends and bridges not checked; cysteine pairing not given here; UniProt Q01523 63-94, looked up, fragment) [HD5, human α-defensin]
antiviral activity against adenovirus (adenovirus): antiviral activity was observed
antiviral activity against papillomavirus (papillomavirus): antiviral activity was observed

human neutrophil peptide 3 [HNP-3]
antiviral activity against rhinovirus (Rv16), in words (rhinovirus (Rv16); Example 2, FIG. 2): exhibited antiviral activity
concentration at which maximal efficacy was reached (rhinovirus (Rv16); Example 2, FIG. 2): 2.5 µg/mL
reduction of rhinovirus titer at maximal efficacy (rhinovirus (Rv16); Example 2, FIG. 2): 2.3 Log10 TCID50/mL

human β-defensin 1 (DHYNCVSSGGQCLYSACPIFTKIQGTCYRGKAKCCK; ends and bridges not checked; cysteine pairing not given here; UniProt P60022 33-68, looked up) [HBD-1, recombinant human β-defensin (Peprotech)]
antiviral activity against adenovirus (adenovirus): antiviral activity was observed
antiviral activity against rhinovirus (Rv16), in words (rhinovirus (Rv16); Example 1, FIG. 1): significantly reduced viral concentration; also recorded: exhibited antiviral activity
antiviral activity against papillomavirus (papillomavirus): antiviral activity was observed

B1: HNP-5: recombinant human α-defensin (Pepnet), α-5; probably human defensin 5 (HD5) (protein, UniProt Q01523 20-94, looked up)
Defensin alpha 5: ESLQERADEATTQKQSGEDNQDLAISFAGNGLSALRTSGSQARATCYCRTGRCATRESLSGVCEISGRLYRLCCR
modifications: Defensin-5 recombinant
antiviral activity against rhinovirus (Rv16), in words (rhinovirus (Rv16); Example 2, FIG. 2): most effective; also recorded: exhibited antiviral activity
concentration at which maximal efficacy was reached (rhinovirus (Rv16); Example 2, FIG. 2): 2 µg/mL
reduction of rhinovirus titer at maximal efficacy (rhinovirus (Rv16); Example 2, FIG. 2): 2.5 Log10 TCID50/mL
